ChEMBL document CHEMBL4330138, “Discovery of new indole-based acylsulfonamide Nav1.7 inhibitors” (Bioorg Med Chem Lett, 2019)

Experiments:
[1] = biological target: T1, Sodium channel protein type 9 subunit alpha (Homo sapiens, UniProt Q15858); test: Inhibition of human Nav1.7 at -60 mV holding potential by cell-based manual patch clamp electrophysiology method
Target sequence in this assay (Q15858 whole entry): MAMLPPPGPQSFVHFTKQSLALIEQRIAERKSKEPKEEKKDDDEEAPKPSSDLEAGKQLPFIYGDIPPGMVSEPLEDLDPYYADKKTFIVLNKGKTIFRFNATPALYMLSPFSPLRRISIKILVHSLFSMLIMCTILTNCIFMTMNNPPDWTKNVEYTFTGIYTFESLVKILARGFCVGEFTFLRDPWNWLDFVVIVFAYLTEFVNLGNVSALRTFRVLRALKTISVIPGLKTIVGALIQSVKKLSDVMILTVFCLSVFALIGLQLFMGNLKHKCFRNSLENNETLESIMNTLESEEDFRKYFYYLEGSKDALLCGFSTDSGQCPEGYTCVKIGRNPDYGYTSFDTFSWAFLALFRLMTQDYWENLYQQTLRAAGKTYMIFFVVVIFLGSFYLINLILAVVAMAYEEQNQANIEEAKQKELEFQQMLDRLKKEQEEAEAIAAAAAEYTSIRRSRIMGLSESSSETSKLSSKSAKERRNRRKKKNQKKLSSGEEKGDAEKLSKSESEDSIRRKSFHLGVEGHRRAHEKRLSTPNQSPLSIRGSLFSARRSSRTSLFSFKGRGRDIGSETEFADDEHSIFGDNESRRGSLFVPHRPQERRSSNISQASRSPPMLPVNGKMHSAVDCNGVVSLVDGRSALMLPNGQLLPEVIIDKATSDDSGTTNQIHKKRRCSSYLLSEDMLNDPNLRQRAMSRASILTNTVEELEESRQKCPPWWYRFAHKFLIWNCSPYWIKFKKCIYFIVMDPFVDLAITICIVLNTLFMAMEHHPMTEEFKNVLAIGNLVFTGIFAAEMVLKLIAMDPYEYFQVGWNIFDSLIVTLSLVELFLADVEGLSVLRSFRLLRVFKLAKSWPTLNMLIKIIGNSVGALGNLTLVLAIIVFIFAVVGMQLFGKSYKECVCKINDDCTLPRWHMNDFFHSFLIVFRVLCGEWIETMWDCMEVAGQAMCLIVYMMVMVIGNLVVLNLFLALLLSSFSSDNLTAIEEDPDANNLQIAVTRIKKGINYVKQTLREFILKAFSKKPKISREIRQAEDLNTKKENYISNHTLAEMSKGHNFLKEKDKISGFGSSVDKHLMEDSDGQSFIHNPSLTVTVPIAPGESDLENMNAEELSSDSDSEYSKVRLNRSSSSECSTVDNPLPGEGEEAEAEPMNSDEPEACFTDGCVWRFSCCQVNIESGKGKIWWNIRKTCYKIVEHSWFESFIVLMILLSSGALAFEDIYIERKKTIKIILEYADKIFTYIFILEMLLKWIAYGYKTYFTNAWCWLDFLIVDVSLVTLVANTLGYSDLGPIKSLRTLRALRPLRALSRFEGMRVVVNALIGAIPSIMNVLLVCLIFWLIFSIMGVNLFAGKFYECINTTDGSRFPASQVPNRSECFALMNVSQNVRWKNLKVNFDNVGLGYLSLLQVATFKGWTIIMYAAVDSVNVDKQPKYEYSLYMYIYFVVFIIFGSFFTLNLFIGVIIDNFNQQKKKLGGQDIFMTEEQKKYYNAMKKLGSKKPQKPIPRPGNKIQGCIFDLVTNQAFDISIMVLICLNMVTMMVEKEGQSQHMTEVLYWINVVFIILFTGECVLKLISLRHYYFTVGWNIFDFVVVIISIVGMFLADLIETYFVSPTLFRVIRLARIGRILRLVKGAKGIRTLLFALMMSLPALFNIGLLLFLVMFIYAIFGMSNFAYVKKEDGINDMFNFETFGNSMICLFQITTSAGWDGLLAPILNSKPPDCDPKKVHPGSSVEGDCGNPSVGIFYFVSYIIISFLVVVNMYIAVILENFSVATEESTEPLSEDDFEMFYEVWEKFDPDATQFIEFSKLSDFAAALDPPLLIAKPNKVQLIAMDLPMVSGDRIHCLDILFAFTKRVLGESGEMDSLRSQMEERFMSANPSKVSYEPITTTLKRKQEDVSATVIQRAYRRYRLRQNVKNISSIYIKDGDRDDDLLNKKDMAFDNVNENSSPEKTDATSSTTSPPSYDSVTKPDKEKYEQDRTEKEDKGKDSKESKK

[2] = biological target: T1, Sodium channel protein type 9 subunit alpha; test: Inhibition of human Nav1.7 at -60 mV holding potential by cell-based IonWorks barracuda automated electrophysiology method
Target sequence in this assay (Q15858 whole entry): as above

[3] = biological target: T1, Sodium channel protein type 9 subunit alpha; test: Ratio of IC50 for human Nav1.7 at -60 mV holding potential by cell-based IonWorks barracuda automated electrophysiology method to IC50 for human Nav1.7 at -60 mV holding potential by cell-based manual patch clamp electrophysiology method
Target sequence in this assay (Q15858 whole entry, looked up): as the sequence (Q15858 whole entry) above

[4] = biological target: Sodium channel protein type 5 subunit alpha (Homo sapiens, UniProt Q14524); test: Inhibition of human Nav1.5 at -50 mV holding potential by cell-based IonWorks barracuda automated electrophysiology method; format: ADME
Sodium channel protein type 5 subunit alpha, sequence (Q14524 whole entry): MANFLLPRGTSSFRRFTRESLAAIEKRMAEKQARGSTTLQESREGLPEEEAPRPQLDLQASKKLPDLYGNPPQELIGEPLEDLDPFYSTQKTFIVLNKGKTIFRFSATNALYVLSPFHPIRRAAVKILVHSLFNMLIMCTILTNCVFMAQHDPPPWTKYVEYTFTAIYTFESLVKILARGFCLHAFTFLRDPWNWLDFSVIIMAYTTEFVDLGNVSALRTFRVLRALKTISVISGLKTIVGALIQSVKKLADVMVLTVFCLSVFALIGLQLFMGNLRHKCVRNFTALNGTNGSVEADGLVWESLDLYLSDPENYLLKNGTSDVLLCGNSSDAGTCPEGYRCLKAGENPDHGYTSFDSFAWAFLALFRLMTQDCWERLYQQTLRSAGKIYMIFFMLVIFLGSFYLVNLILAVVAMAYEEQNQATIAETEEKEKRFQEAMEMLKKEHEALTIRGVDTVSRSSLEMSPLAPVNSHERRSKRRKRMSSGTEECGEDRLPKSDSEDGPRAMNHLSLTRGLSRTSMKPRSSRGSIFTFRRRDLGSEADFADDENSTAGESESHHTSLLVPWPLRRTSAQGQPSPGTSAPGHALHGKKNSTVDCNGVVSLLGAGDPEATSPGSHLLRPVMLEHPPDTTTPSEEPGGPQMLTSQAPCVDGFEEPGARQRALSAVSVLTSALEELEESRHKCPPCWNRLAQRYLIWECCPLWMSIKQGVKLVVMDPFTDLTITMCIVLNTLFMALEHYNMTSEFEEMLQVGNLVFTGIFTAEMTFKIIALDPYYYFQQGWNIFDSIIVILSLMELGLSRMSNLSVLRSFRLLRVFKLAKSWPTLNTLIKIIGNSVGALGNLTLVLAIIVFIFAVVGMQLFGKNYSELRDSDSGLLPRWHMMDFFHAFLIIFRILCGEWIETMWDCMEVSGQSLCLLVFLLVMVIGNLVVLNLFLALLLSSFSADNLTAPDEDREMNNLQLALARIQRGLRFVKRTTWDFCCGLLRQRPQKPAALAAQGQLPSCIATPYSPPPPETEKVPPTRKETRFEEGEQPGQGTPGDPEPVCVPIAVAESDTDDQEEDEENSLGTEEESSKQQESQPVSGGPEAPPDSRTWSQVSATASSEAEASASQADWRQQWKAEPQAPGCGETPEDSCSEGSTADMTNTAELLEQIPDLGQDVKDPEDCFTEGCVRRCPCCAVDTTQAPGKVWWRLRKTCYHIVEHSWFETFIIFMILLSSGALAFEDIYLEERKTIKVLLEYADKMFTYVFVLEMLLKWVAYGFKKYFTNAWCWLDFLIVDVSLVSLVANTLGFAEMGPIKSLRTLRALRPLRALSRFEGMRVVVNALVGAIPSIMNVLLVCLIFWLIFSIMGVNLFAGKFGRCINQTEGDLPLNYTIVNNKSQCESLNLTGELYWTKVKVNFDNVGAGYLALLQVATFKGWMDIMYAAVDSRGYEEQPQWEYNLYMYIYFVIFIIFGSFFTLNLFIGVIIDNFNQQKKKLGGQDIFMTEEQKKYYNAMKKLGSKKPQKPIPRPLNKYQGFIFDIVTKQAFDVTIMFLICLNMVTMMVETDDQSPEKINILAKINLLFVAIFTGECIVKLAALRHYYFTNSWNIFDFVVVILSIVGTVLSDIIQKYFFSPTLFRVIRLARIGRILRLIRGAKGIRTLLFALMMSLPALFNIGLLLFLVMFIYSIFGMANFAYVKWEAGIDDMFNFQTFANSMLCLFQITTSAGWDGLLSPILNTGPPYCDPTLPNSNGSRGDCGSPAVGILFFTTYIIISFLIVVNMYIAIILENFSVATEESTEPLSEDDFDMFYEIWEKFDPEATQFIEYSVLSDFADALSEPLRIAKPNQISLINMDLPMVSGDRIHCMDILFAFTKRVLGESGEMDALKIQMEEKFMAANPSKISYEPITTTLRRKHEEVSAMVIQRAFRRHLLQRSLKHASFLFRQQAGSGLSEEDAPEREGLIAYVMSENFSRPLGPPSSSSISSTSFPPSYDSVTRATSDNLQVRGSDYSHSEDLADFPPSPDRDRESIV

[5] = Efflux ratio of permeability from basolateral to apical side over apical to basolateral side in human Caco2 cells; format: ADME, cell-based; details: Caco-2
[6] = Permeability across basolateral to apical side in human Caco2 cells; format: ADME, cell-based; details: Caco-2, read-out: permeability
[7] = Permeability across apical to basolateral side in human Caco2 cells; format: ADME, cell-based; details: Caco-2, read-out: permeability
[8] = biological target: CYP450 (Cytochrome P450 family, isoform not stated) (Homo sapiens, UniProt P04798+P05177+P05181+P08684+P10632+P10635+P11509+P11712+P13584+P20813+P20815+P20853+P24462+P24903+P33260+P33261+P51589+P78329+P98187+Q02928+Q08477+Q16678+Q16696+Q5TCH4+Q6VVX0+Q7Z449+Q8TAV3+Q96SQ9+Q9HB55); test: Inhibition of human CYP450; format: ADME, protein assay
Homo sapiens = organism: Homo sapiens; test: Selectivity ratio of IC50 for human Nav1.5 to IC50 for human Nav1.7
[9] = biological target: T1, Sodium channel protein type 9 subunit alpha; test: Ratio of IC50 for human Nav1.7 at -60 mV holding potential by cell-based manual patch clamp electrophysiology method to IC50 for human Nav1.7 at -60 mV holding potential by cell-based IonWorks barracuda automated electrophysiology method
Target sequence in this assay (Q15858 whole entry, looked up): as the sequence (Q15858 whole entry) above

SMILES | IC50 [2] | IC50 [4] | further results
COc1ncc(-c2c(C3CCCCC3)c3ccc(C(=O)NS(=O)(=O)C4CC4)cc3n2C)cn1 | 195 nM |  | IC50 [1]: 46 nM; Ratio IC50 [3]: 4
O=C(NS(=O)(=O)C1CC1)c1ccc2c(C3CCCCC3)c3n(c2c1)CCCCC3=O | 1500 nM |  | 
Cn1cc(C(C)(C)C)c2ccc(C(=O)NS(=O)(=O)C3CC3)cc21 | 1100 nM | > 30000 nM | 
Cn1cc(C2(C)CCCCO2)c2ccc(C(=O)NS(=O)(=O)C3CC3)cc21 (stereo not drawn) | > 30000 nM | > 30000 nM | 
Cn1cc(C2C3CC4CC2CN(C4)C3)c2ccc(C(=O)NS(=O)(=O)C3CC3)cc21 (stereo not drawn) | > 30000 nM | > 30000 nM | 
Cn1cc(C2CCCN(C(=O)OC(C)(C)C)C2)c2ccc(C(=O)NS(=O)(=O)C3CC3)cc21 (stereo not drawn) | 388 nM | > 30000 nM | 
O=C(NS(=O)(=O)C1CC1)c1ccc2c(C3CCCCC3)c3n(c2c1)CCCCC3O (stereo not drawn) | > 30000 nM |  | 
Cn1cc(C2=CCNCC2)c2ccc(C(=O)NS(=O)(=O)C3CC3)cc21 | > 30000 nM | > 30000 nM | 
Cc1nn(-c2cnc(OCC3(C)CC3)c(Cl)c2)c2ccc(C(=O)NS(C)(=O)=O)cc12 |  |  | IC50 [1]: 8 nM
Cn1cc(C2CCC(C(C)(C)C)CC2)c2ccc(C(=O)NS(=O)(=O)C3CC3)cc21 (stereo not drawn) | 45 nM |  | 
Cn1c(-c2cnc(N3CCOCC3)nc2)c(C2CCCCC2)c2ccc(C(=O)NS(=O)(=O)C3CC3)cc21 |  |  | IC50 [1]: 30 nM
Cn1cc(C2C3CC4CC(C3)CC2C4)c2ccc(C(=O)NS(=O)(=O)C3CC3)cc21 (stereo not drawn) | 79 nM | 8400 nM | 
Cn1cc(C2CCCCC2)c2cc(F)c(C(=O)NS(=O)(=O)C3CC3)cc21 | 30 nM | > 10000 nM | efflux ratio [5]: 1.2; Papp B→A [6]: 16 ×10⁻⁶ cm/s; Papp A→B [7]: 12.9 ×10⁻⁶ cm/s; IC50 [1]: 14 to 30 nM; IC50 [8]: > 10000 nM
Cn1c(-c2ccc(N3CCCC3)nc2)c(C2CCCCC2)c2ccc(C(=O)NS(=O)(=O)C3CC3)cc21 |  |  | IC50 [1]: 38 nM
Cn1cc(C2=CCN(C(=O)OC(C)(C)C)CC2)c2ccc(C(=O)NS(=O)(=O)C3CC3)cc21 | 635 nM | > 30000 nM | 
Cn1cc(C2CCN(C(=O)OC(C)(C)C)CC2)c2ccc(C(=O)NS(=O)(=O)C3CC3)cc21 | 388 nM | > 30000 nM | IC50 [1]: 383 nM
Cn1c(-c2ccoc2)c(C2CCCCC2)c2ccc(C(=O)NS(=O)(=O)C3CC3)cc21 | 440 nM |  | 
COc1ncc(-c2c(C3CCCCC3)c3ccc(C(=O)NS(=O)(=O)C4CC4)cc3n2C)cc1C#N |  |  | IC50 [1]: 85 nM
Cn1ccc2ccc(C(=O)NS(=O)(=O)C3CC3)cc21 | > 30000 nM | > 30000 nM | 
Cn1c(-c2ccc(C#N)nc2)c(C2CCCCC2)c2ccc(C(=O)NS(=O)(=O)C3CC3)cc21 | 123 nM |  | IC50 [1]: 366 nM; Ratio IC50 [9]: 3
CCC(c1cn(C)c2cc(C(=O)NS(=O)(=O)C3CC3)ccc12)C(C)(C)C (stereo not drawn) | 1200 nM | > 30000 nM | 

The next lines start with results.

IC50 [2] | SMILES | IC50 [4] | further results
116 nM | Cn1cc(C2CCCCCC2)c2ccc(C(=O)NS(=O)(=O)C3CC3)cc21 |  | 
37 nM | Cc1cn(C2CCCCC2)c2ccc(C(=O)NS(=O)(=O)C3CC3)cc12 | 13000 nM | efflux ratio [5]: 2.1; Papp B→A [6]: 21.9 ×10⁻⁶ cm/s; Papp A→B [7]: 10.6 ×10⁻⁶ cm/s; IC50 [8]: > 10000 nM
> 30000 nM | Cn1cc(C2CCNCC2)c2ccc(C(=O)NS(=O)(=O)C3CC3)cc21 | > 30000 nM | 
> 30000 nM | Cc1cn(C)c2cc(C(=O)NS(=O)(=O)C3CC3)ccc12 | > 30000 nM | 
20000 nM | Cn1cc(C2=CCOCC2)c2ccc(C(=O)NS(=O)(=O)C3CC3)cc21 | > 30000 nM | 
42 nM | Cn1cc(C2CCCCC2)c2ccc(C(=O)NS(=O)(=O)C3CC3)cc21 | 2400 nM | IC50 [1]: 55 nM; Ratio IC50 (Homo sapiens): 57
> 30000 nM | CN1CCC(c2cn(C)c3cc(C(=O)NS(=O)(=O)C4CC4)ccc23)CC1 | > 30000 nM | 
509 nM | C[C@@H]1CC[C@@H](c2cn(C)c3cc(C(=O)NS(=O)(=O)C4CC4)ccc23)C1 | > 30000 nM | 
62 nM | C[C@H]1CC[C@@H](c2cn(C)c3cc(C(=O)NS(=O)(=O)C4CC4)ccc23)C1 | 5400 nM | 
48 nM | Cn1cc(C2CCCC(C)(C)C2)c2ccc(C(=O)NS(=O)(=O)C3CC3)cc21 (stereo not drawn) | 4100 nM | 
> 30000 nM | Cn1cc(C2CCCNC2)c2ccc(C(=O)NS(=O)(=O)C3CC3)cc21 (stereo not drawn) | > 30000 nM | 
360 nM | Cn1cc(C2CCC2)c2ccc(C(=O)NS(=O)(=O)C3CC3)cc21 | 6700 nM | 
72 nM | Cc1cn(C2C=CCCC2)c2ccc(C(=O)NS(=O)(=O)C3CC3)cc12 (stereo not drawn) | 460 nM | 
